The values below come from ChEMBL document CHEMBL2203260, “Riccardin C derivatives as anti-MRSA agents: structure-activity relationship of a series of hydroxylated bis(bibenzyl)s” (2012).

The subject of assay [1] is Staphylococcus aureus. The experiment in a line: Antibacterial activity against methicillin-resistant Staphylococcus aureus OM584 by two-fold liquid microdilution method. Format: functional.
The test system of assay [2] is Staphylococcus aureus. The experiment in a line: Antibacterial activity against methicillin-resistant Staphylococcus aureus OM481 by two-fold liquid microdilution method. The class given is functional.

In brackets after ≈: the same amount, converted by molar mass. Some results are limits rather than exact numbers.

In the case of `Oc1ccccc1Oc1ccccc1`, the MIC in assay [1] and in assay [2] was 6.25 µg/mL (≈ 33.6 µM) in each case.
Turning to `COc1ccc2c(c1)CCc1ccc(cc1)Oc1cccc(c1)CCc1ccc-2cc1`, the MIC in assay [1] and in assay [2] was over 100 µg/mL each time.
Consider `Oc1ccc2c(c1)CCc1ccc(cc1)Oc1cccc(c1)CCc1ccc-2cc1`, for which the MIC in assay [1] is over 100 µg/mL; in assay [2], 1.6 µg/mL (≈ 4.08 µM).
For `Oc1ccc2c(c1)CCc1ccc(c(O)c1)Oc1cc(ccc1O)CCc1ccc-2c(O)c1` the same measures were 16 µg/mL (≈ 36.3 µM) and 16 µg/mL (≈ 36.3 µM).
The corresponding values for `Oc1ccc2c(c1)CCc1ccc(cc1O)Oc1cc(ccc1O)CCc1ccc-2c(O)c1` are 8 µg/mL (≈ 18.2 µM) and 8 µg/mL (≈ 18.2 µM).
`Oc1ccc(-c2ccccc2O)cc1`: the MIC in assay [1] and in assay [2] was over 100 µg/mL each time.
Regarding `COc1cc2ccc1-c1ccccc1CCc1ccc(cc1)Oc1cccc(c1)CC2`, the MIC in assay [1] and in assay [2] was over 100 µg/mL throughout.
For the molecule `COc1ccc2cc1Oc1ccc(cc1)CCc1ccccc1-c1ccc(cc1)CC2`, the MIC in assay [1] and in assay [2] was over 100 µg/mL in each case.
Take `Oc1ccc2c(c1)CCc1ccc(cc1)Oc1cc(ccc1O)CCc1ccc-2cc1`: the MIC in assay [1] and in assay [2] was 3.2 µg/mL (≈ 7.83 µM) throughout.
Turning to `Oc1ccc2cc1Oc1ccc(cc1)CCc1ccccc1-c1ccc(cc1O)CC2`, the MIC in assay [1] and in assay [2] was 3.2 µg/mL (≈ 7.83 µM) throughout.
As to `Oc1ccc2c(c1)CCc1ccc(cc1)Oc1cccc(c1)CCc1ccc-2c(O)c1`, the MIC in assay [1] and in assay [2] was 3.2 µg/mL (≈ 7.83 µM) throughout.
Turning to `Oc1cc2ccc1-c1ccccc1CCc1ccc(cc1)Oc1cccc(c1)CC2`, the MIC is over 100 µg/mL in assay [1] and 3.2 µg/mL (≈ 8.15 µM) in assay [2].
Regarding `Oc1ccc2cc1Oc1ccc(cc1)CCc1ccccc1-c1ccc(cc1)CC2`, the minimal inhibitory concentration (MIC) in assay [1] and in assay [2] was over 100 µg/mL in each case.
Take `CC(=O)NC[C@H]1CN(c2ccc(N3CCOCC3)c(F)c2)C(=O)O1` [LINEZOLID]: the MIC in assay [1] and in assay [2] was 1 µg/mL (≈ 2.96 µM) each time.
With `Oc1ccc(CCc2cccc(O)c2)cc1` [LUNULARIN], the minimal inhibitory concentration (MIC) in assay [1] and in assay [2] was over 100 µg/mL each time.
For `Oc1ccc2c(c1)CCc1ccc(cc1)Oc1cc(ccc1O)CCc1ccc-2c(O)c1` [RICCARDI C], the minimum inhibitory concentration (MIC) in assay [1] and in assay [2] was 3.2 µg/mL (≈ 7.54 µM) in each case.
